# Reference: patent publication US20100167275A1, “Potassium channel mutants of the yeast Saccharomyces cerevisiae and their use for screening eukaryotic potassium channels” (sanofi-aventis Deutschland GmbH, priority 2000, published 2010)
# Several values for one entry are separate records, joined by “and”; a condition that tells them apart may be missing. Equal entries are not always repeated.
# Columns and labels:
# [1] = biological target: T1, human potassium channel ROMK2 (Homo sapiens, UniProt P48048); assay: Growth of triple mutant Δtrk1Δtrk2Δtok1 expressing ROMK2 (YM256), OD 620 nm; format: cell-based; details: 2 mM RbCl
# T1 construct: expressed in transfected cells; host or cells: Saccharomyces cerevisiae Δtrk1Δtrk2Δtok1, strain YM256, vector p423GPD
# T1 sequence (P48048 1-372 isoform P48048-2): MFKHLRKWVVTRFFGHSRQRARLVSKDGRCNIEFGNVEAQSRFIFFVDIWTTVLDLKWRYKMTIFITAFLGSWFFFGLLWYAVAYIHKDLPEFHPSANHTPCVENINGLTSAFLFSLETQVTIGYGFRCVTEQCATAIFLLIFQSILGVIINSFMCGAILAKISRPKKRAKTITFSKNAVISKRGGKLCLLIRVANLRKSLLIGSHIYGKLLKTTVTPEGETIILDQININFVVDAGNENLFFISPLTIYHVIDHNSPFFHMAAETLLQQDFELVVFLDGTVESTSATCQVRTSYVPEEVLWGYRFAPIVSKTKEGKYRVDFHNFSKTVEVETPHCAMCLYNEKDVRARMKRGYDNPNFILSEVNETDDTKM
# Source text: The human potassium channel ROMK2 ((Shuck, M. E. et al., 1994; Bock, J. H. et al., 1997); Sequence SEQ ID NO. 31 hROMK2) was subcloned into the yeast vector p423GPD and transformed into the triple mutant Δtrk1Δtrk2Δtok1.
# [2] = system: triple mutant Δtrk1Δtrk2Δtok1 with p423GPD; assay: Growth of triple mutant Δtrk1Δtrk2Δtok1 with blank vector p423GPD (YM194), OD 620 nm; format: cell-based, Saccharomyces cerevisiae; details: 2 mM RbCl; DPM-HIS 5 mM KCl, pH 6.5, 24 hours growth, starting OD 0.01
# Description: The cell density was measured after 24 hours' growth (density of the starter culture: 0.01 OD620) via determination of the optical density at a wavelength of 620 nm. The values corresponded to the average of in each case 4 measurements±SD.
# [3] = biological target: T2, human Kv1.5 channel (Homo sapiens, UniProt P22460, DEL187-187/DEL55-55/P188G/P307A/R154P); assay: Complementation of growth deficiency by Kv1.5 in the presence of activators; format: cell-based; details: 2 mM RbCl; culture plates, DPM 5 mM KCl pH 6.5; FIG. 3
# T2 construct: expressed in transfected cells; host or cells: Saccharomyces cerevisiae Δtrk1 Δtrk2 Δtok1 (YM195; also Δtrk1 Δtrk2 YM190), vector p423-GPD3
# T2 sequence (P22460 with tags, fused parts or gaps DEL55-55/R154P/DEL187-187/P188G/P307A): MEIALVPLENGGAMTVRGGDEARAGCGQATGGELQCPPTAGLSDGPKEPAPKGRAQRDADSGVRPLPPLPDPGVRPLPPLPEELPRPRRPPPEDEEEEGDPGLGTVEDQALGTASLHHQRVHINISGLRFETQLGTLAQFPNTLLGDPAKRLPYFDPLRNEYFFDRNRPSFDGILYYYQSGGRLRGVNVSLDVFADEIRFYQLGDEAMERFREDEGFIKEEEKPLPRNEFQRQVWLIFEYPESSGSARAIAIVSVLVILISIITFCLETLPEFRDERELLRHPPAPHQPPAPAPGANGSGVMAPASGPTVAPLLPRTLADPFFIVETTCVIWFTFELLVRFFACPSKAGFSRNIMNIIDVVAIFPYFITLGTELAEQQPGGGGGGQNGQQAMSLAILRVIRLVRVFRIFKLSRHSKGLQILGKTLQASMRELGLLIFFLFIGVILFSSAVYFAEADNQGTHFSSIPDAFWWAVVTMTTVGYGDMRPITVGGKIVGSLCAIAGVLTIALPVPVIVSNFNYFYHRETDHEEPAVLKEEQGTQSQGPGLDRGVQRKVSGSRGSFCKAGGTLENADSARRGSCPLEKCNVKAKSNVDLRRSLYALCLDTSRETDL
# Source text: Each of the strains YM168 (Δtrk1 Δtrk2) and YM182 (Δtrk1 Δtrk2 Δtok1) was transformed with the human potassium channels Kv1.5 ((Fedida, D. et al, 1998); YM190 and YM195) and HERG1 ((Fedida, D. et al., 1998); YM191 and YM196) in p423-GPD3, respectively, as yeast expression vector. gpIRK1 ((Tang, W. et al., 1995); YM193 and YM198) acted as positive control in p423-GPD3 as yeast expression vector (Mumberg, D. et al., 1995; Ronicke, V. et al., 1997). The blank vector p423-GPD3 (YM189 and YM194) acted as negative control. The transformed yeast strains were plated onto (−)HIS/80 mM KCl medium. After this, patches of single colonies were replica-plated onto DPM/5 mM KCl (pH 6.5) to check the capacity of complementing the potassium deficiency.
# Kv1.5: Rb^+ extends the hyperpolarization phase. This means that the inwardly directed K^+ flux is more prolonged and increases the possibility of complementing the growth deficiency.
# The yeast strains YM 194 and YM 195 were tested in DPM/-HIS/5 mM KCl with 1 mM RbCl for the different growth behavior in liquid medium. To this end, 10 ml of overnight culture were set up in DPM/-HIS/80 mM KCl and, next morning, brought to an OD600 of 0.05 with the relevant media (final volume: 20 ml). The optical density at 600 nm was determined at defined intervals with the aid of a photometer.
# [4] = biological target: human potassium channel HERG1 (Homo sapiens, UniProt Q12809)
# Sequence of human potassium channel HERG1 (Q12809 whole entry): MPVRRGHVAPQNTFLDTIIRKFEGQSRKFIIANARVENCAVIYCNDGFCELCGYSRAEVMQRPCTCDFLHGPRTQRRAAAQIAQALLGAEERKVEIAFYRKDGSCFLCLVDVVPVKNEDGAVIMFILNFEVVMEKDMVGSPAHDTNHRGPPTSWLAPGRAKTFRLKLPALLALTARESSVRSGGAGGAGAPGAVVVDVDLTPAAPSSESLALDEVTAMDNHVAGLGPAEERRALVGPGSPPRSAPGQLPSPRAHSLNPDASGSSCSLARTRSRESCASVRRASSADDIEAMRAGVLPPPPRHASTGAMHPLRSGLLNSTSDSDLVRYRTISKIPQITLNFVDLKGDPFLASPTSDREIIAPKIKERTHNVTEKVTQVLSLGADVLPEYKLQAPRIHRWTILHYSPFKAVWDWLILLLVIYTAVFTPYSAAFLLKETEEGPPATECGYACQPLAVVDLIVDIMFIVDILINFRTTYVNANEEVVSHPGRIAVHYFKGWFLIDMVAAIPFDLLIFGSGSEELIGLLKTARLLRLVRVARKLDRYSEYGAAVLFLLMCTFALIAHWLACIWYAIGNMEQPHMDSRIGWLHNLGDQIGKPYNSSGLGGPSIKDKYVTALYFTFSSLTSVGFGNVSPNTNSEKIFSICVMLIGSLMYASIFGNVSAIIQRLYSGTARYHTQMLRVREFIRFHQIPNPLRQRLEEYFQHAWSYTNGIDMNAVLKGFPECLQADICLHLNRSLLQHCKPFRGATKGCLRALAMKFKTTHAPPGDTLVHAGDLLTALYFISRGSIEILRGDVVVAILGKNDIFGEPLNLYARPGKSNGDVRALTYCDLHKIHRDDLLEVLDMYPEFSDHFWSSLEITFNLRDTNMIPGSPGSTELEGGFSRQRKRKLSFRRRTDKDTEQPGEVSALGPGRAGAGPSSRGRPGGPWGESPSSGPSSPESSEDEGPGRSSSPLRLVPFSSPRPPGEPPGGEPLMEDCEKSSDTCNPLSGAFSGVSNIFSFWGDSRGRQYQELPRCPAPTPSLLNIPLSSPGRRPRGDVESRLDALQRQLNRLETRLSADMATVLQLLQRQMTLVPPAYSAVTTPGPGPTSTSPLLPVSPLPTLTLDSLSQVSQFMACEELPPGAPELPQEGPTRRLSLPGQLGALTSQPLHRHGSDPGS
# Description: FIG. 7: Expression of the human potassium channel HERG1 in the triple mutant Δtrk1Δtrk2Δtok1 in DPM-HIS/-TRP 5 mM KCl medium in 96-well ELISA plates in the presence of 0.5 mM CsCl as activator.
# (§1) The various inhibitors were employed at a final concentration of in each case 30 μM. To measure the cell density, a commercially available LacZ reporter system pYX232 by Ingenius (cat. No. MBV-032-10) was transformed into the yeast strains to be studied. Expression of the LacZ reporter gene was under the control of the constitutive Saccharomyces cerevisiae promotor TPI for the triose phosphate isomerase gene. The LacZ enzyme activity was measured via detecting the luminescence after 24 hours' growth (density of the starter culture: 0.01 OD620) using a commercially available assay system by TROPIX. The values correspond to the average of in each case 4 measurements±SD. The two different assays were carried out independently of each other on two different days.
# FIG. 8: Expression of the human potassium channel HERG1 in the triple mutant Δtrk1Δtrk2Δtok1 in DPM-HIS 5 mM KCl medium in 96-well ELISA plates in the presence of 0.5 mM CsCl as activator.
# The various inhibitors were employed at a final concentration of in each case 30 μM. The cell density was measured after 38 hours' growth (density of the starter culture: 0.03 OD620) via determination of the optical density at a wavelength of 620 nm. The values corresponded to the average of in each case 4 measurements±SD.
# All growth assays in the triple mutant Δtrk1Δtrk2Δtok1 were carried out in growth medium DPM (defined potassium medium) at the pH and the potassium concentration stated in each case.
# (§2) All substances, dissolved in DMSO, were employed in a final concentration of 30 μM. As a control, cells were measured with the same final concentration of 0.5% DMSO without substance, without DMSO addition or without substance.
# [5] = system: Saccharomyces cerevisiae wild-type strain; format: cell-based
# Description: as §1, with “FIG. 9: Growth of the Saccharomyces cerevisiae wild-type strain in DPM-HIS/-TRP 5 mM KCl medium in 96-well ELISA plates in the presence of 0.5 mM CsCl. The various” for “The various”, “by TROPIX.” for “by TROPIX. The values correspond to the average of in each case 4 measurements±SD. The two different assays were carried out independently of each other on two different days.”
# The values correspond to the average of in each case 4 measurements±SD. The two different assays were carried out independently of each other on two different days.
# as §2
# [6] = system: Saccharomyces cerevisiae wild-type strain; assay: Growth of wild-type strain in DPM medium with 5 mM or 80 mM KCl, OD 620 nm; format: cell-based; details: 30 μM
# Source text: However, the present results could not exclude that the inhibitory effect found for these substances can possibly also be attributed to an inhibition of other proteins which are essential for the growth of yeast cells. […]
# [7] = 30 μM, wild-type cells, DPM -HIS/-TRP, 0.5 mM CsCl, 24 hours growth, TROPIX kit, ASSAY 1
# [8] = 30 μM, wild-type cells, DPM -HIS/-TRP, 0.5 mM CsCl, 24 hours growth, TROPIX kit, ASSAY 2
# [9] = wild-type cells, DPM, 5 mM KCl, 24 hours growth, starting culture 0.01 OD
# [10] = wild-type cells, DPM, 80 mM KCl, 24 hours growth, starting culture 0.01 OD
smiles,measurement,setting,value
[Cl-].[Rb+] [RbCl],"256 (average growth of p423GPD-ROMK2 strain YM256, OD)","[1]; DPM-HIS 5 mM KCl, pH 6.5, 24 hours growth, starting OD 0.01",0.44
same,Signal to noise ratio S/N,"[1]; YM256 versus YM194, DPM-HIS 5 mM KCl, pH 6.5, 24 hours",8.46
same,"194 (average growth of p423GPD strain YM194, OD)",[2],0.048
same,complementation of the growth deficiency of the Δtrk1 Δtrk2 Δtok1 mutant by human Kv1.5 in the presence of activator,[3],fully complementing
"O=C1Cc2cc(CCN3CCN(c4nsc5ccccc45)CC3)c(Cl)cc2N1 [Ziprasidone, 5-(2-[4-(1,2-benzisothiazol-3-yl)piperazino]-ethyl)-6-chloro-1,3-dihydro-2H-indol-2-one]","Exp. 1 (growth, OD620 nm)",[4],0.006
same,"Exp. 2 (growth, OD620 nm)",[4],0.01
same,"Exp. 3 (growth, OD620 nm)",[4],0.012
same,"Exp. 4 (growth, OD620 nm)",[4],0.015
same,Mean growth (OD620 nm),[4],0.01075
same,complementation of the growth deficiency of the triple mutant by human HERG1 in the presence of the substance,[4],can no longer complement
same,specificity of inhibition of the human HERG1 channel (comparison with wild-type strain),[5],rather unspecific inhibitors
same,"Exp. 1 (LacZ luminescence), ASSAY 1",[5]; [7],55.32
same,"Exp. 2 (LacZ luminescence), ASSAY 1",[5]; [7],70.29
same,"Exp. 3 (LacZ luminescence), ASSAY 1",[5]; [7],70.3
same,"Exp. 4 (LacZ luminescence), ASSAY 1",[5]; [7],77.18
same,"Mean growth (LacZ luminescence), ASSAY 1","[5]; 30 μM, wild-type cells, DPM -HIS/-TRP, 0.5 mM CsCl, 24 hours growth, TROPIX kit, ASSAY 1, mean of 4",68.2725
same,"Exp. 1 (LacZ luminescence), ASSAY 2",[5]; [8],62.52
same,"Exp. 2 (LacZ luminescence), ASSAY 2",[5]; [8],44.3
same,"Exp. 3 (LacZ luminescence), ASSAY 2",[5]; [8],49.71
same,"Exp. 4 (LacZ luminescence), ASSAY 2",[5]; [8],51.87
same,"Mean growth (LacZ luminescence), ASSAY 2","[5]; 30 μM, wild-type cells, DPM -HIS/-TRP, 0.5 mM CsCl, 24 hours growth, TROPIX kit, ASSAY 2, mean of 4",52.1
same,effect on growth of yeast cells at higher potassium concentrations,"[6]; 80 mM KCl, FIG. 10",inhibits the growth
same,toxic effect on yeast cells (Saccharomyces cerevisiae),"[6]; growth medium containing 80 mM KCl, FIG. 10",has a toxic effect
same,"growth OD 620 nm, 5 mM KCl, measurement 1",[6]; [9],0.943
same,"growth OD 620 nm, 5 mM KCl, measurement 2",[6]; [9],0.877
same,"growth OD 620 nm, 5 mM KCl, measurement 3",[6]; [9],0.675
same,"growth OD 620 nm, 5 mM KCl, measurement 4",[6]; [9],0.701
same,"5 mM KCl (average growth, OD 620 nm)","[6]; wild-type cells, DPM, 5 mM KCl, 24 hours growth, starting culture 0.01 OD, average of 4",0.799
same,"growth OD 620 nm, 80 mM KCl, measurement 1",[6]; [10],0.836
same,"growth OD 620 nm, 80 mM KCl, measurement 2",[6]; [10],0.681
same,"growth OD 620 nm, 80 mM KCl, measurement 3",[6]; [10],0.717
same,"growth OD 620 nm, 80 mM KCl, measurement 4",[6]; [10],0.606
same,"80 mM KCl (average growth, OD 620 nm)","[6]; wild-type cells, DPM, 80 mM KCl, 24 hours growth, starting culture 0.01 OD, average of 4",0.7 and 0.71
